Like-named read-outs stand apart in the source and are kept apart here.

Data set [1] concerns Fibroblast control cultures. As to conditions: by day 7. The protocol: The inhibitors were added on day 0 to the Opticells® on the day of first feeding (day 5 or 6). Thereafter, cultures were fed with regular media. Samples from the respective treatments and controls were collected on day 21 and analyzed.
Fibroblast control cultures containing 0, 10, 30 and 100 nM of α-amanitin were cultured for one week.

For the next data set, the system named is Neuroscreen® cells. The experiment in a line: Neuroscreen cell neurite outgrowth assay. The format is cell-based, rat. The settings on record: standard NGF response curve. How it is done:
The Neuroscreen® cells responded by extending neurites.
Neuroscreen® cells were maintained prior to the interaction assay by routine culture on collagen coated plastic and subcultured at confluence using basal medium consisting of RPMI (Cat #10-040-CV, Mediatech), 4.0 mM Glutamine (CAT #25-005-CI, Mediatech) supplemented with 20% Horse Serum (Cat #35-030-CV, Mediatech), 10% Fetal Bovine Serum (Cat #35-010, Mediatech).
[…] Neuroscreen® cells were assayed for the formation of neurite process extension using immuno-staining for β-tubulin as follows. Cells were fixed after 4 days in culture by adding 10% v/v of 37% formaldehyde (Cat. #2106-01, J. T. Baker) directly to the culture medium in the well. […]
Only wells with cell counts above 100 cells per field were analyzed. […]
Human peripheral blood collected into ten 8 ml Vacutainer™ tubes containing K2EDTA was shipped overnight on ice and then placed vertically into a +4° C. fridge for 6 hours in order to allow the blood to gravity separate. […] After thoroughly mixing the contents of each conical tube, 10 ml quantities of the solutions were injected into separate sets of 5 Opticells™, and then placed horizontally into a 37° C., […], 2% O2, non-humidified incubator. […]

Turning to `CC[C@H](C)[C@@H]1NC(=O)CNC(=O)[C@@H]2Cc3c([nH]c4cc(O)ccc34)[S+]([O-])C[C@@H](NC(=O)CNC1=O)C(=O)N[C@@H](CC(N)=O)C(=O)N1C[C@H](O)C[C@H]1C(=O)N[C@@H]([C@@H](C)[C@@H](O)CO)C(=O)N2` (stereo in doubt) [α-amanitin], the Mortality in data set [1] (10 nM) is 60-70%; in data set [1] (30 nM), 80-90%; in data set [1] (100 nM), ~100%.
Regarding “NGF: nerve growth factor, positive control at 100 ng/ml”, the “Effect of fresh NGF at amounts less than 10 ng per well” value in the data set with Neuroscreen® cells is recorded as “limited or no effect”. In the data set with Neuroscreen® cells (fresh NGF), the “NGF amount at which maximal responses occur” value is given as 100 ng of NGF per well.

The record behind these values is patent US9314420B2, “Acellular bioabsorbable tissue regeneration matrices” (priority 2005, dated 2016).
